The values below come from paper PMC7204994 (Frontiers in Pharmacology, 2020).

Molecules are shown by their SMILES.

For assay [1], the target named is T1, LIMK1 (Homo sapiens, UniProt P53667). The experiment in a line: in vitro GST-cofilin phosphorylation by recombinant LIMK1, Western blot, […] compound. In kind it is biochemical. Set-up: recombinant human LIMK1 (Millipore #14-656). In general terms: In western blotting, separated proteins are transferred to a membrane and probed.
Assay [2] deals with T1, LIMK1. The experiment in a line: cell-free LIMK1 biochemical assay. Conditions: cited from earlier work.

T1 sequence (P53667 whole entry): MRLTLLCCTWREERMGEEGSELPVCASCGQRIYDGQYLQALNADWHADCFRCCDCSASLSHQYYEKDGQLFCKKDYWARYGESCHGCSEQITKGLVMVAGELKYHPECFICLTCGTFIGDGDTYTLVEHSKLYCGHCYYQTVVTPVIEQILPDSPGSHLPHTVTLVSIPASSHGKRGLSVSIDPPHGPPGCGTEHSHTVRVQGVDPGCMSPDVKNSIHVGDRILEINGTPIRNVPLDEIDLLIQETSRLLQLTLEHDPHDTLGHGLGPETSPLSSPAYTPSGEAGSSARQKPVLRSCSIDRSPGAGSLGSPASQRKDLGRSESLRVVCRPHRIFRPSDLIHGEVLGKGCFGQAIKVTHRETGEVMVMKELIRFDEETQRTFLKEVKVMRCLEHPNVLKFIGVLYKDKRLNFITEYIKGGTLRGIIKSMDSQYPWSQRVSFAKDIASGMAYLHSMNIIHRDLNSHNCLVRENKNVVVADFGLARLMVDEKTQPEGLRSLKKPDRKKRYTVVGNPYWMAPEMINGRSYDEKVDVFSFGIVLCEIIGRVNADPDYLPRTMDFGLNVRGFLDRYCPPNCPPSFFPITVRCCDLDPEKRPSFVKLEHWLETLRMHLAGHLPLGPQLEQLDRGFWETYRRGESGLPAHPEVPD

On to `Cn1cc(-c2[nH]c3cc(NC(=O)C(N)C4CCCCC4)cc4c3c2C=NNC4=O)cn1` (centres unmarked) [PF0477736], for which the “in vitro GST-cofilin phosphorylation by recombinant LIMK1, Western blot, 10 μM c” value at LIMK1 [1] is recorded as “showed that PF0477736 is indeed able to directly inhibit LIMK”. The term IC50 denotes the concentration that gives 50% inhibition. Turning to `Cc1c[nH]c2ncnc(-c3ccc(NC(=O)N(CCN)c4ccc(Cl)cc4)c(F)c3)c12` [SR10905, 1-(2-aminoethyl)-1-(4-chlorophenyl)-3-(2-fluoro-4-(5-methyl-7H-pyrrolo[2,3-d]pyrimidin-4-yl)phenyl)urea], the 50% inhibitory concentration (IC50) on LIMK1 [2] was 15 nM.
